Measured values published in ChEMBL document CHEMBL3774353, “Efficacy of peptide nucleic acid and selected conjugates against specific cellular pathologies of amyotrophic lateral sclerosis” (Bioorg Med Chem, 2016).

The molecules below were run against Superoxide dismutase [Cu-Zn] (Homo sapiens) (UniProt P00441) (assay: Binding affinity to human EGFP-tagged SOD1 A4V mutant mRNA expressed in mouse Neuro2a cells assessed as reduction in cells bearing inclusions at 25 uM measured 72 hrs post transfection by Hoechst33342 staining-based epifluorescence microscopic analysis (reference value: 19 to 21%)).
Sequence of Superoxide dismutase [Cu-Zn] (Homo sapiens) (P00441 whole entry): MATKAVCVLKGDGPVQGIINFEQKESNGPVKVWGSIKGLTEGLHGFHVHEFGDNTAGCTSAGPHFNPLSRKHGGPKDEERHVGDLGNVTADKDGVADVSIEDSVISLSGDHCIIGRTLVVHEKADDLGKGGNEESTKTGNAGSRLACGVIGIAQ
Format: cell-based
Set-up: scale not given: the % may be the effect or the level left

Activity [%] | Compound
17 | CC(=O)Oc1c(C)c(C)c2c(c1Cn1cc(CCC(=O)NCCN(CC(=O)NCCN(CC(=O)NCCN(CC(=O)NCCN(CC(=O)NCCN(CC(=O)NCCN(CC(=O)NCCN(CC(=O)NCCN(CC(=O)NCCN(CC(N)=O)C(=O)Cn3cnc4c(=O)[nH]c(N)nc43)C(=O)Cn3ccc(N)nc3=O)C(=O)Cn3cnc4c(N)ncnc43)C(=O)Cn3ccc(N)nc3=O)C(=O)Cn3cnc4c(=O)[nH]c(N)nc43)C(=O)Cn3cnc4c(N)ncnc43)C(=O)Cn3ccc(N)nc3=O)C(=O)Cn3cc(C)c(=O)[nH]c3=O)C(=O)Cn3cc(C)c(=O)[nH]c3=O)nn1)CCC(C)(CCCC(C)CCCC(C)CCCC(C)C)O2 (centres undefined)
14 | O=C(CS)N[C@@H]1CCCC[C@H]1NC(=O)CS (racemic)
14 | CCOC(=O)C1(C)CCc2c(Cn3cc(CCC(=O)NCCN(CC(=O)NCCN(CC(=O)NCCN(CC(=O)NCCN(CC(=O)NCCN(CC(=O)NCCN(CC(=O)NCCN(CC(=O)NCCN(CC(=O)NCCN(CC(N)=O)C(=O)Cn4cnc5c(=O)[nH]c(N)nc54)C(=O)Cn4ccc(N)nc4=O)C(=O)Cn4cnc5c(N)ncnc54)C(=O)Cn4ccc(N)nc4=O)C(=O)Cn4cnc5c(=O)[nH]c(N)nc54)C(=O)Cn4cnc5c(N)ncnc54)C(=O)Cn4ccc(N)nc4=O)C(=O)Cn4cc(C)c(=O)[nH]c4=O)C(=O)Cn4cc(C)c(=O)[nH]c4=O)nn3)c(OC(C)=O)c(C)c(C)c2O1 (centres undefined)
16 | Cc1c(C)c2c(c(C)c1O)CCC(C)(C(=O)NCCN(CC(=O)NCCN(CC(=O)NCCN(CC(=O)NCCN(CC(=O)NCCN(CC(=O)NCCN(CC(=O)NCCN(CC(=O)NCCN(CC(=O)NCCN(CC(N)=O)C(=O)Cn1cnc3c(=O)[nH]c(N)nc31)C(=O)Cn1ccc(N)nc1=O)C(=O)Cn1cnc3c(N)ncnc31)C(=O)Cn1ccc(N)nc1=O)C(=O)Cn1cnc3c(=O)[nH]c(N)nc31)C(=O)Cn1cnc3c(N)ncnc31)C(=O)Cn1ccc(N)nc1=O)C(=O)Cn1cc(C)c(=O)[nH]c1=O)C(=O)Cn1cc(C)c(=O)[nH]c1=O)O2 (centres undefined)
